Results: ChEMBL document CHEMBL3351812, “Discovery and SAR of a novel series of metabotropic glutamate receptor 5 positive allosteric modulators with high ligand efficiency” (Bioorg Med Chem Lett, 2014)
pEC50, pIC50: −log10 of the molar value. The source made the active and inactive calls. The calls are words filed in the database; no cut-off is given here.

Key:
[1] = target: Metabotropic glutamate receptor 5 (Rattus norvegicus, UniProt P31424); test: (§1) Positive allosteric modulation of rat mGlu5 receptor expressed in HEK293 cells; type: cell-based
Sequence of Metabotropic glutamate receptor 5 (P31424 whole entry): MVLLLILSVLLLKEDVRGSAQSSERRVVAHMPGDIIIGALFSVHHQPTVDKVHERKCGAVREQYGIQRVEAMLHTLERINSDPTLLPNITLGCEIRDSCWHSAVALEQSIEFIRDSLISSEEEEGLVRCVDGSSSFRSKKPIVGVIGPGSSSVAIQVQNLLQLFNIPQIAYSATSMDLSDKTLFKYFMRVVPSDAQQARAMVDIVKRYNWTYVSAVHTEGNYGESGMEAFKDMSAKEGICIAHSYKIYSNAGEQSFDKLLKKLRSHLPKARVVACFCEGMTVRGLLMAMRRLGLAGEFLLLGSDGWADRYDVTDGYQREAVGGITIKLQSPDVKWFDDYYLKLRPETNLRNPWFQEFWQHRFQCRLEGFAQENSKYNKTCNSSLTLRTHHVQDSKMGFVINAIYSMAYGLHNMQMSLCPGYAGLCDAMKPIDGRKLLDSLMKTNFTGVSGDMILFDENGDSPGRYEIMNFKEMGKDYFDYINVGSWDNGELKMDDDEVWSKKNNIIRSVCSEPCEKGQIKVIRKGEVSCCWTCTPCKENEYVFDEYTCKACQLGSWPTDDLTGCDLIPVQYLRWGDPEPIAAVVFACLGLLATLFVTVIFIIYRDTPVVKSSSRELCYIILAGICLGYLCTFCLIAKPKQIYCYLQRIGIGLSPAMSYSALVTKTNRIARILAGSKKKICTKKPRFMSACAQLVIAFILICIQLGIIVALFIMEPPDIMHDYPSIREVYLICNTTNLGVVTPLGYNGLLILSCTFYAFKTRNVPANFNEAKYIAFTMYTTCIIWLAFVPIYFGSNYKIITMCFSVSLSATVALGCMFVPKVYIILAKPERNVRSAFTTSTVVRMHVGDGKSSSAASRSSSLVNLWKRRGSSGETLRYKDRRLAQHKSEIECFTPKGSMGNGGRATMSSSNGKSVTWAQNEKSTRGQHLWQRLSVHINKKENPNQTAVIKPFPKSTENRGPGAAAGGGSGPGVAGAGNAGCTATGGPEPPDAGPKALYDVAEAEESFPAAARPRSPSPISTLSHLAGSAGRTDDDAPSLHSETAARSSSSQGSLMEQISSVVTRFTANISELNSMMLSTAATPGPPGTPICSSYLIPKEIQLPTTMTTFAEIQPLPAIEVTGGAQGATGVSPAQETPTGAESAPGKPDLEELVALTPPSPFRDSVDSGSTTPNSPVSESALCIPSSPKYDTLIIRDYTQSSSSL

[2] = target: Metabotropic glutamate receptor 5 (Rattus norvegicus) (UniProt P31424); test: Positive allosteric modulation of rat mGlu5 receptor expressed in HEK293 cells relative to glutamate; type: cell-based; parameters: concentration or dose not given beside the values
Sequence of Metabotropic glutamate receptor 5 (Rattus norvegicus) (P31424 21-1203 limits assumed): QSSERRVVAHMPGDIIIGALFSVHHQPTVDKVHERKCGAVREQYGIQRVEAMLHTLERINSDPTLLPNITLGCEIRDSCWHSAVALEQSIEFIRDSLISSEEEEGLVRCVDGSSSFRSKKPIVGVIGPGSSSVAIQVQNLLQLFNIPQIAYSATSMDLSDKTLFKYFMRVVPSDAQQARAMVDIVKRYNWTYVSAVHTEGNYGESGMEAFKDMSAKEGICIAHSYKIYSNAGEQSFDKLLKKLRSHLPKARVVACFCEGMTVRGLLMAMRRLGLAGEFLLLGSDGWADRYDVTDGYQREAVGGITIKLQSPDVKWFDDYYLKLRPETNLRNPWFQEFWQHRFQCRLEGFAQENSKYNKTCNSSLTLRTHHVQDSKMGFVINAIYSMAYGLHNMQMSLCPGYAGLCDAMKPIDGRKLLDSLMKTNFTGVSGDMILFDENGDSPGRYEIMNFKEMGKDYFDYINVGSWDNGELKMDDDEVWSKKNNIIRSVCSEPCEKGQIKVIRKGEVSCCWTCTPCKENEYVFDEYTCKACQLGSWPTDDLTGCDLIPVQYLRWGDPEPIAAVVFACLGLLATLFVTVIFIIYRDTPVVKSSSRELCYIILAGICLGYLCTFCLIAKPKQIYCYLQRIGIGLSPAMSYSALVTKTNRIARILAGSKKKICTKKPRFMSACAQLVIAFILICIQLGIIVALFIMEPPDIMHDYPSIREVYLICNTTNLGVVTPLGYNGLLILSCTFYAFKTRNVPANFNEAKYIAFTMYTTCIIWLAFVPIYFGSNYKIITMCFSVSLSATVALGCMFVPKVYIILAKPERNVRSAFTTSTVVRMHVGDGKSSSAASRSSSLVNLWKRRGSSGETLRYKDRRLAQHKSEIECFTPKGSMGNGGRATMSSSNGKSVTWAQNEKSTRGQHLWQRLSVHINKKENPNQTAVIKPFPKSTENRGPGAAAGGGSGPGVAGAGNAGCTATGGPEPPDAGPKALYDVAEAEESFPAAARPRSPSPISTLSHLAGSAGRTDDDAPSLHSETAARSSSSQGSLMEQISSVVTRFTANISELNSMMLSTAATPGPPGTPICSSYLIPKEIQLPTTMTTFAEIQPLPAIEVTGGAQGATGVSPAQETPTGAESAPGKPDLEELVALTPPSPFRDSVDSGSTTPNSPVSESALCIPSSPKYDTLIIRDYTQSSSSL

[3] = (§2) Fraction unbound in rat plasma; type: ADME, cell-free
[4] = (§3) Fraction unbound in human plasma; type: ADME, cell-free
[5] = target: Metabotropic glutamate receptor 5 (Rattus norvegicus) (UniProt P31424); test: as §1; type: cell-based
Cytochrome P450 1A2 = target: T1, Cytochrome P450 1A2 (Homo sapiens, UniProt P05177); test: Inhibition of CYP1A2 (unknown origin); type: ADME
T1 sequence (P05177 whole entry): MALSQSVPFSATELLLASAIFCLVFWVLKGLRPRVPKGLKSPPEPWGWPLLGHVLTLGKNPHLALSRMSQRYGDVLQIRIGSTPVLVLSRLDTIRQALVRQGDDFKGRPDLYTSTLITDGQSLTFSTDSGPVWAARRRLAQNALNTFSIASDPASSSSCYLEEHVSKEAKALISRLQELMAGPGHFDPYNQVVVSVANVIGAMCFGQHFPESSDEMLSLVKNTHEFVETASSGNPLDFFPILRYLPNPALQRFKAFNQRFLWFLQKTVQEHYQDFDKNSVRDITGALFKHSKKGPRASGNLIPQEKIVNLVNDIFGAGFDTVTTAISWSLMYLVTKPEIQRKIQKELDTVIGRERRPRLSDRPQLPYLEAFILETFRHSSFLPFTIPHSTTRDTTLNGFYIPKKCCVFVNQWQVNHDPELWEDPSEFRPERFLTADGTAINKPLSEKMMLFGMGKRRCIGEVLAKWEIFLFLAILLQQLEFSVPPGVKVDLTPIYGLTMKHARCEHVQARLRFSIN

Plasma [6] = test: as §2; type: ADME, cell-free
Plasma [7] = test: as §3; type: ADME, cell-free
Cytochrome P450 2C9 = Cytochrome P450 2C9 (Homo sapiens, UniProt P11712); test: Inhibition of CYP2C9 (unknown origin); type: ADME
Sequence of Cytochrome P450 2C9 (P11712 whole entry): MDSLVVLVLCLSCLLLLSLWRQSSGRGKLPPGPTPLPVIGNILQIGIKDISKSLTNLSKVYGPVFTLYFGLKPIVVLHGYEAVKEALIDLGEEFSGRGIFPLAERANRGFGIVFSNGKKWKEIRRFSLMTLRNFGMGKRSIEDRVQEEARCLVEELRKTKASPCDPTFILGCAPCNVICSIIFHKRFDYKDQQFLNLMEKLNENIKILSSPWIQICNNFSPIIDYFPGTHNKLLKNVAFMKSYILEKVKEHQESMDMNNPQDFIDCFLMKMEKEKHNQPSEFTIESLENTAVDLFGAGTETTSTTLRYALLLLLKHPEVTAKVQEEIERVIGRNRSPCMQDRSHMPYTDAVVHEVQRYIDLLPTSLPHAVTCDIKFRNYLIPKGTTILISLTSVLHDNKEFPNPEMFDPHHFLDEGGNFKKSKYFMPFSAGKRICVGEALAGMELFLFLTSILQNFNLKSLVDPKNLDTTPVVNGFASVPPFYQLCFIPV

[8] = target: Metabotropic glutamate receptor 8 (Homo sapiens) (UniProt O00222); test: Positive allosteric modulation of human mGlu8 receptor
Plasma [9] = test: Stability in rat plasma at 37 degC after 4 hrs; type: ADME, cell-free
[10] = target: Metabotropic glutamate receptor 7 (Homo sapiens) (UniProt Q14831); test: Positive allosteric modulation of human mGlu7 receptor
Cytochrome P450 3A4 = Cytochrome P450 3A4 (Homo sapiens, UniProt P08684); test: Inhibition of CYP3A4 (unknown origin); type: ADME
Sequence of Cytochrome P450 3A4 (P08684 whole entry): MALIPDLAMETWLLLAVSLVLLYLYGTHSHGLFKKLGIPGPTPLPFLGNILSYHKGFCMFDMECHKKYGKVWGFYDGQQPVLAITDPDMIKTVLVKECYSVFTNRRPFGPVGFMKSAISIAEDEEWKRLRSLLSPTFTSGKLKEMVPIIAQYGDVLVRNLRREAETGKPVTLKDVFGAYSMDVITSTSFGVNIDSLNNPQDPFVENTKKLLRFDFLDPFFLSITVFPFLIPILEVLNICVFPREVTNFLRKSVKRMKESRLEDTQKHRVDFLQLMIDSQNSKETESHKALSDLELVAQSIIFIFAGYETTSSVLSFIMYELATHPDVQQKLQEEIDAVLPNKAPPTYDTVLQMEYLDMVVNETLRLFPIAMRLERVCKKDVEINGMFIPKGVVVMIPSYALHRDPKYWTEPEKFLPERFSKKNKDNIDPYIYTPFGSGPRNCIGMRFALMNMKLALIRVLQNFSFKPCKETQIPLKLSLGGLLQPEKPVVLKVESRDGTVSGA

[11] = target: Metabotropic glutamate receptor 3 (Homo sapiens) (UniProt Q14832); test: Positive allosteric modulation of human mGlu3 receptor
[12] = target: Metabotropic glutamate receptor 2 (Homo sapiens) (UniProt Q14416); test: Positive allosteric modulation of human mGlu2 receptor
Sequence of Metabotropic glutamate receptor 2 (Homo sapiens) (Q14416 19-872 limits assumed): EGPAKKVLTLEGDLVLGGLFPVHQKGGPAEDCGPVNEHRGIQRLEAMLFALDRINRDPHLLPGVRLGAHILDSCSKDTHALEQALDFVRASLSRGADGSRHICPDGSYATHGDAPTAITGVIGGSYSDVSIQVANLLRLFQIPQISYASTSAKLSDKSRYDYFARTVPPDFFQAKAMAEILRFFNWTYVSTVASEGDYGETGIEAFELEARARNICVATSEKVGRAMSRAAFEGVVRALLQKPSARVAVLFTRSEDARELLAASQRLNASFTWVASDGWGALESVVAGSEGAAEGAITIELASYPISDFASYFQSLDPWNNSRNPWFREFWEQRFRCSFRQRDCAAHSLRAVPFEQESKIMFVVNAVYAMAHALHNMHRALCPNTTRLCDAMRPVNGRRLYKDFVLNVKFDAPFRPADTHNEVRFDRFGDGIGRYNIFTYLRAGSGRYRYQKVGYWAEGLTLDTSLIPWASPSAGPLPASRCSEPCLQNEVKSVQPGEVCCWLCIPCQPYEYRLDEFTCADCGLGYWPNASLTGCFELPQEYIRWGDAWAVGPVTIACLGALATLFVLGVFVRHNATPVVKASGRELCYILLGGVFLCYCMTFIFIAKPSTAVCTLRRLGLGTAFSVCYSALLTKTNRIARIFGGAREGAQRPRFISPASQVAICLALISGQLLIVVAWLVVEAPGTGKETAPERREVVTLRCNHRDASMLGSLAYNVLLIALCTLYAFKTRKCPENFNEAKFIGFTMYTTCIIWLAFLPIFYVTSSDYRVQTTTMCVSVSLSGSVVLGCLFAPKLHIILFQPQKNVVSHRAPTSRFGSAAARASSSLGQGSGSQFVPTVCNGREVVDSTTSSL

[13] = target: Metabotropic glutamate receptor 1 (Rattus norvegicus) (UniProt P23385); test: Positive allosteric modulation of rat mGlu1 receptor
[14] = target: Metabotropic glutamate receptor 2 (Rattus norvegicus) (UniProt P31421); test: Positive allosteric modulation of rat mGlu2 receptor
Plasma [15] = test: Stability in human plasma at 37 degC after 4 hrs; type: ADME, cell-free
[16] = target: Metabotropic glutamate receptor 6 (Rattus norvegicus) (UniProt P35349); test: Positive allosteric modulation of rat mGlu6 receptor
[17] = target: Metabotropic glutamate receptor 7 (Rattus norvegicus) (UniProt P35400); test: Positive allosteric modulation of rat mGlu7 receptor
[18] = target: Metabotropic glutamate receptor 3 (Rattus norvegicus) (UniProt P31422); test: Positive allosteric modulation of rat mGlu3 receptor
Sequence of Metabotropic glutamate receptor 3 (Rattus norvegicus) (P31422 23-879 limits assumed): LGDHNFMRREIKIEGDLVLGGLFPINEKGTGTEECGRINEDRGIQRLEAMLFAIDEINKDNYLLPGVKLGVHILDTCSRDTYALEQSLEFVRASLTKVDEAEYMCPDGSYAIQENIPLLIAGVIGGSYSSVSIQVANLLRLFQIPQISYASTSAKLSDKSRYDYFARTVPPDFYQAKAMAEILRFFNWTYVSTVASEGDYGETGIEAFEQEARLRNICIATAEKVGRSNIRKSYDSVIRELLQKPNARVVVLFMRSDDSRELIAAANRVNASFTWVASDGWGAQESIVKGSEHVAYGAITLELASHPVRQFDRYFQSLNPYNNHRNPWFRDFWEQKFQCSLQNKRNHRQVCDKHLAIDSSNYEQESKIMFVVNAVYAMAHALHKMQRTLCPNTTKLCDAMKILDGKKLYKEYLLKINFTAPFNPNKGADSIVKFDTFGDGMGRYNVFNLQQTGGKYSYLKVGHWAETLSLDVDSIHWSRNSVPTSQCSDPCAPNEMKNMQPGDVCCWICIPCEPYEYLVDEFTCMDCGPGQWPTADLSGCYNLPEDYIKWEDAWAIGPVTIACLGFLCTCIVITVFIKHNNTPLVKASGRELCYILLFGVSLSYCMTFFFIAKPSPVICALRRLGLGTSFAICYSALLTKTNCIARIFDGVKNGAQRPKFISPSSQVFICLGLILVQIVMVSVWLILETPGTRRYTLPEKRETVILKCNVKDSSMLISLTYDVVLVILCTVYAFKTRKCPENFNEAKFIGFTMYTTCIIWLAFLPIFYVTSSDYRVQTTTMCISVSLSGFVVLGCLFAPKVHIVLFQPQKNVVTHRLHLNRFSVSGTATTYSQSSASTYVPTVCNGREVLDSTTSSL

[19] = target: Metabotropic glutamate receptor 1 (Homo sapiens) (UniProt Q13255); test: Positive allosteric modulation of human mGlu1 receptor
[20] = target: Metabotropic glutamate receptor 8 (Rattus norvegicus) (UniProt P70579); test: Positive allosteric modulation of rat mGlu8 receptor
[21] = target: Metabotropic glutamate receptor 6 (Homo sapiens) (UniProt O15303); test: Positive allosteric modulation of human mGlu6 receptor
Cytochrome P450 2D6 = Cytochrome P450 2D6 (Homo sapiens, UniProt P10635); test: Inhibition of CYP2D6 (unknown origin); type: ADME

SMILES | pEC50 [1] | Activity [2] | other results
c1ccc(COC2CCCn3nc(COc4ccccc4)cc32)cc1 (stereo not drawn) | 6.00 | 70% | –
COC1c2cc(COc3ccccc3)nn2CCC1(C)C (stereo not drawn) | 6.10 | 75% | –
CC1(C)CCn2nc(COc3ccccc3)cc2C1NCc1ccccc1 (stereo not drawn) | 5.44 | 65% | –
O=C1c2cc(COc3ccccc3)nn2CCC1Cc1ccccc1 (stereo not drawn) | 6.91 | 73% | –
Clc1ccc(CNC2CCCn3nc(COc4ccccc4)cc32)cc1 (stereo not drawn) | 6.20 | 65% | –
c1ccc(NC2CCCn3nc(COc4ccccc4)cc32)cc1 (stereo not drawn) | 6.57 | 62% | –
O=C1c2cc(COc3ccccc3)nn2CCC1(Cc1ccccc1)Cc1ccccc1 | < 5.00 | 37% | –
O=C1c2cc(COc3ccccc3)nn2CCC12CCCC2 | 7.32 | 60% | –
c1ccc(CNC2CCCn3nc(OCc4ccccc4)cc32)cc1 (stereo not drawn) | 6.21 | 48% | –
OC1(c2ccccc2)CCCn2nc(COc3ccccc3)cc21 (stereo not drawn) | 5.92 | 49% | –
CC1CCn2nc(COc3ccccc3)cc2C1=O (stereo not drawn) | 6.55 | 76% | –
OC1CCCn2nc(COc3ccccc3)cc21 (stereo not drawn) | 5.70 | 47% | –
O=C1c2cc(COc3ccccc3)nn2CCC1c1ccc(F)cc1 (stereo not drawn) | 7.46 | 66% | fraction unbound [3]: 0.032; fraction unbound [4]: 0.008
COc1ccccc1C1CCn2nc(COc3ccccc3)cc2C1=O (stereo not drawn) | 7.37 | 68% | –
CN(Cc1ccccc1)C1CCCn2nc(COc3ccccc3)cc21 (stereo not drawn) | 6.16 | 71% | –
CC1CCn2nc(COc3ccccc3)cc2C1(C)O (stereo not drawn) | 5.78 | 39% | –
O=C1CCCn2nc(OCc3ccccc3)cc21 | – | – | Activity [5]: inactive
O=C1c2cc(OCc3ccccc3)nn2CCC1c1ccc(F)cc1 (stereo not drawn) | 7.02 | 48% | –
c1ccc(OCc2cc3n(n2)CCCC3NC2CC2)cc1 (stereo not drawn) | 5.75 | 50% | –
COC1CCCn2nc(COc3ccccc3)cc21 (stereo not drawn) | 5.54 | 43% | –
COc1ccc(CNC2CCCn3nc(COc4ccccc4)cc32)cc1 (stereo not drawn) | 6.54 | 60% | –

SMILES | pEC50 [1] | Activity [2] | other results
c1ccc(OCc2cc3n(n2)CCCC3NCc2ccncc2)cc1 (stereo not drawn) | 5.59 | 68% | –
CC1(C)CCn2nc(OCc3ccccc3)cc2C1=O | 6.64 | 56% | –
c1ccc(OCc2cc3n(n2)CCCC3OCC2CC2)cc1 (stereo not drawn) | 5.60 | 43% | –
FC1(F)CCCn2nc(COc3ccccc3)cc21 | 6.20 | 52% | –
CCCCC1(O)CCCn2nc(COc3ccccc3)cc21 (stereo not drawn) | 5.74 | 44% | –
COc1ccccc1C1(C)CCn2nc(COc3ccccc3)cc2C1=O (stereo not drawn) | 6.18 | 52% | –
CC1(C)CCn2nc(COc3ccccc3)cc2C1O (stereo not drawn) | 5.36 | 60% | –
CC1(C)CCn2nc(COc3ccccc3)cc2C1=O | 7.07 | 70% | pIC50 (Cytochrome P450 1A2): 5.14; fraction unbound [3]: 0.07; fraction unbound [4]: 0.1
NC1CCCn2nc(COc3ccccc3)cc21 (stereo not drawn) | < 5.00 | 45% | –
Fc1ccc(CNC2CCCn3nc(COc4ccccc4)cc32)cc1 (stereo not drawn) | 6.50 | 69% | –
c1ccc(CNC2CCCn3nc(COc4ccccc4)cc32)cc1 (stereo not drawn) | 6.20 | 74% | Fu (Plasma [6]): 0.03%; Fu (Plasma [7]): 0.02%
CC(C)N1CCN(C2CCCn3nc(COc4ccccc4)cc32)CC1 (stereo not drawn) | 6.06 | 71% | –
O=C1CCCn2nc(COc3ccccc3)cc21 | 6.89 | 66% | inhibition (INH) (Cytochrome P450 2C9): Active; Activity [8]: > 10 µM; Stability (Plasma [9]): Stable; Activity [10]: > 10 µM; inhibition (INH) (Cytochrome P450 3A4): Active; pIC50 (Cytochrome P450 1A2): 5.21; Activity [11]: > 10 µM; Activity [12]: > 10 µM; Activity [13]: > 10 µM; Activity [14]: > 10 µM; fraction unbound [3]: 0.21; Stability (Plasma [15]): Stable; Activity [16]: > 10 µM; Activity [17]: > 10 µM; Activity [18]: > 10 µM; Activity [19]: > 10 µM; Activity [20]: > 10 µM; Activity [21]: > 10 µM; inhibition (INH) (Cytochrome P450 2D6): Active; fraction unbound [4]: 0.23
OC1(C(F)(F)F)CCCn2nc(COc3ccccc3)cc21 (stereo not drawn) | 5.42 | 54% | –
CC1(c2ccc(F)cc2)CCn2nc(COc3ccccc3)cc2C1=O (stereo not drawn) | 6.64 | 58% | –
O=C1CCCc2nc(COc3ccccc3)sc21 | 6.36 | 65% | –
c1ccc(OCc2cc3n(n2)CCCC3NCc2cccnc2)cc1 (stereo not drawn) | 5.55 | 59% | –
Fc1cccc(CNC2CCCn3nc(COc4ccccc4)cc32)c1 (stereo not drawn) | 6.56 | 75% | –
c1ccc(OCc2cc3n(n2)CCCC3N2CCOCC2)cc1 (stereo not drawn) | 5.63 | 52% | –
CC1(C)CCn2nc(COc3ccccc3)cc2C1OCc1ccccc1 (stereo not drawn) | 5.63 | 64% | –
